In PubChem BioAssay AID504726 (Broad Institute, 2011) one finds AC50 and activity change, negative = cytotoxicity data, which are given here for 62 molecules.

Structures are written as SMILES. Where “and” joins values, the source holds several entries; their conditions need not be identical. Identical values can stand only once. Calls of active or inactive are those of the source.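 The calls were made as follows: active = fitted half-maximal concentration for a cytotoxic signal drop no higher than ten times the top valid dose tested; inconclusive = flat curve between -70 and -30 percent, or an unreliable fit; inactive = flat within 30 percent, signal rise, or potency beyond limit.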

A word on the AC50: it is the midpoint of the concentration-response curve, whichever way the signal moves.

The first experiment concerns HeLa viability, CellTiter-Glo ATP luminescence, 24 h. The experiment can be described thus: viability loss in HeLa cells – cell-based, 24 h, cherry-picked samples, cytotoxicity control, dose response (AID 504726).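 As to activity change, negative = cytotoxicity: 0% = DMSO neutral controls and -100% = mitoxantrone positive controls.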
Details: not given
`O=C1c2c(O)ccc(O)c2C(=O)c2c(NCCNCCO)ccc(NCCNCCO)c21`: the AC50 was 1360 nM and 4080 nM.

System in another experiment: not listed separately
The experiment is described as above. To be noted: HeLa viability, CellTiter-Glo ATP luminescence, 24 h; at 35 µM (top of the series). For orientation: In ATP-based viability assays light output follows the ATP content of the culture.
In the case of `O=C(CCN1C(=O)/C(=C/c2ccco2)SC1=S)Nc1ccc(C(=O)O)c(O)c1`, the activity change, negative = cytotoxicity was 2.73% (inactive). Still for that read-out and setting: as for `Cn1c(Cl)c(C(=O)Nc2ccc(Cl)cc2)c2ccccc21`, the figure is -6.51% (inactive). Same read-out and setting: the result for `CCCc1cc(=O)oc2cc(C)cc(OCC(=O)O)c12` reads -7.49% (inactive); that for `CCC(C)[C@H](NC(=O)[C@@H]1Cc2ccccc2CN1)C(=O)Nc1ccc2c(c1)OCO2` (some centres not stated), -9.19% (inactive); that for `CC(C(=O)Nc1ccc(C(=O)O)c(O)c1)N1C(=O)/C(=C\c2ccco2)SC1=S` (configuration not stated), -7.47% (inactive). Same read-out and setting: as for `Cc1nn(Cc2c(F)c(F)c(F)c(F)c2F)c(C)c1NC(=O)c1ccnn1C`, the figure is -4.82% (inactive); as for `CSC(=NS(=O)(=O)c1ccc(N)cc1)NS(=O)(=O)c1cccs1`, -2.85% (inactive); as for `CCC1(c2ccccc2)NC(=O)N(CC(=O)Nc2ccc(OC)nc2)C1=O` (configuration not stated), -1.91% (inactive). On to `O=C(O)c1ccccc1NC(=O)c1cc(-c2ccccc2)nc2ccccc12`, for which the activity change, negative = cytotoxicity was -2.32% (inactive).

As for `Cc1ccc(C(=O)CCC(=O)Nc2ncccc2C)cc1`, the activity change, negative = cytotoxicity was -3.79% (inactive).

In the case of `COc1[nH]c(/N=C/c2ccccc2)c(C#N)c1C#N`, the activity change, negative = cytotoxicity is -1.43% (inactive).

`O=C(O)COc1ccc2c(c1)O/C(=C\c1ccco1)C2=O`: the activity change, negative = cytotoxicity was -1.96% (inactive). Still for that read-out and setting: as for `CCN(C(=O)c1cccc(S(=O)(=O)N2CCc3ccccc32)c1)C1CCS(=O)(=O)C1` (configuration not stated), the figure is -1.74% (inactive); as for `Nc1cc(N)nc(SCC(=O)N2CCCCC2)n1`, 4.42% (inactive); as for `CN(N=Nc1ccc([N+](=O)[O-])cc1)c1ccccc1`, -18.3% (inactive). Same read-out and setting: the result for `O=C(O)C(c1ccccc1)N1C(=O)/C(=C\c2ccc(-c3cccc(Cl)c3)o2)SC1=S` (configuration not stated) reads -2.5% (inactive); that for `CS(=O)(=O)c1cccc(C(=O)Oc2ccccc2)c1`, 5.26% (inactive). Regarding `O=C1CCCC2=C1C(c1ccc(O)c(O)c1)Nc1ccc3ncccc3c12` (configuration not stated), the activity change, negative = cytotoxicity is -1.08% (inactive). The same measure, in the same setting: the result for `CC1=NN(c2cccc(C(=O)O)c2)C(=O)/C1=C\C=C\c1ccco1` reads -5.55% (inactive); that for `O=C(OCC(=O)N1N=C(c2ccc(Cl)cc2)CC1c1ccco1)c1cccnc1` (configuration not stated), -11.7% (inactive). Still for that read-out and setting: as for `Cc1ccc(-c2nnc(-c3ccc(NC(=O)c4ccco4)cc3)o2)cc1`, the figure is -2.7% (inactive); as for `O=C(O)c1ccccc1C1=Nc2ccc(O)cc2Oc2cc(O)ccc21`, -3.9% (inactive). Still for that read-out and setting: as for `CCOc1ccccc1N1CCN(C(=O)c2ccc3nc(N)sc3c2)CC1`, the figure is -19.1% (inactive). As to `O=C(CSc1nc2ccccc2[nH]1)Nc1cccc(S(=O)(=O)N2CCOCC2)c1`, the activity change, negative = cytotoxicity was 3.94% (inactive). The same measure, in the same setting: the result for `Cn1c(=O)c(NCCc2ccccc2)c2c3c(cccc31)C(=O)c1ccccc1-2` reads -38.4% (inactive); that for `COc1ccccc1CNC(=O)C(=O)NCC1CCCN1S(=O)(=O)c1cccs1` (configuration not stated), -4.86% (inactive). As for `COc1ccc(C(=O)N/N=C/c2ccc(OC)c(COc3ccccc3)c2)cc1`, the activity change, negative = cytotoxicity was -5.44% (inactive).

For `Nc1nc(C(F)(F)F)cc(=O)[nH]1`, the activity change, negative = cytotoxicity was -5.29% (inactive). Consider `CC(=O)OCCCn1c(C)[n+](C)c2cc(Cl)c(Cl)cc21`, for which the activity change, negative = cytotoxicity is -14.3% (inactive).

In the case of `COc1ccc(N=C2SC(CC(=O)Nc3ccccc3)C(=O)N2Cc2ccco2)cc1` (configuration not stated), the activity change, negative = cytotoxicity is -17.3% (inactive). As to `O=C(O)c1cccc(-n2cccc2/C=C2/NC(=O)N(c3ccc(Cl)cc3)C2=O)c1`, the activity change, negative = cytotoxicity was 0.035% (inactive).

`Fc1ccc(C2=CC(c3ccc(Br)o3)n3ncnc3N2)cc1` (configuration not stated): the activity change, negative = cytotoxicity is -14.5% (inactive). On the same count and under the same terms, the result for `CCCCN(C(=O)C(C)Oc1ccc(Br)cc1)c1c(N)n(CC(C)C)c(=O)[nH]c1=O` (configuration not stated) reads 3.21% (inactive); that for `O=C1c2cccc3c(O)ccc(c23)C(=O)N1Cc1ccco1`, 8.13% (inactive). In the case of `Cn1c(=O)c(NC2CCCCC2)c2c3c(cccc31)C(=O)c1ccccc1-2`, the activity change, negative = cytotoxicity was -11.9% (inactive).

Take `Oc1ccc2ccc3cccc[n+]3c2c1`: the activity change, negative = cytotoxicity is -13.8% (inactive). For `CS(=O)(=O)Nc1nc2n(n1)C(c1ccccc1)C=C(c1ccc(Br)cc1)N2` (configuration not stated), the activity change, negative = cytotoxicity is -2.61% (inactive).

For `COc1ccccc1N1CCN(S(=O)(=O)c2c(C)[nH]c(C)c2C(=O)N2CCCC2)CC1`, the activity change, negative = cytotoxicity is 3.8% (inactive).

As to `Cc1cccc(-c2nsc(SCC(=O)Nc3nccs3)n2)c1`, the activity change, negative = cytotoxicity is -0.205% (inactive). Consider `O=C(c1ccc2c(c1)CCN2S(=O)(=O)c1ccccc1)N1CCN(c2ccc(F)cc2)CC1`, for which the activity change, negative = cytotoxicity was -13.2% (inactive).

On to `CC(C)CC(=O)Nc1ccc(S(=O)(=O)N2CC3CC(C2)c2cccc(=O)n2C3)cc1` (configuration not stated), for which the activity change, negative = cytotoxicity is 1.91% (inactive). On the same count and under the same terms, the result for `CN(C)C(=O)c1ccc(NC(=O)COC(=O)C2(c3ccccc3)CCCC2)cc1` reads -4.12% (inactive); that for `CCCCN(C(=O)CSc1nnc(-c2ccc(Cl)cc2)o1)c1c(N)n(CC(C)C)c(=O)[nH]c1=O`, 5.27% (inactive); that for `Nc1ccc(-c2c3ccc(=O)cc-3oc3cc(O)ccc23)cc1C(=O)O`, -1.65% (inactive). The same measure, in the same setting: as for `O=C(c1coc(=O)c(Br)c1)N1CCCc2ccccc21`, the figure is -15% (inactive). As to `Cc1ccc(CSc2ncnc3onc(C)c23)cc1`, the activity change, negative = cytotoxicity was -13.2% (inactive).

Consider `O=C(O)c1cccc(-n2cccc2/C=C/[N+](=O)[O-])c1`, for which the activity change, negative = cytotoxicity is -0.655% (inactive). Take `CCOc1ccc2noc3c2c1C(=O)c1ccccc1-3`: the activity change, negative = cytotoxicity is -3.75% (inactive). Still for that read-out and setting: the result for `NC(=S)NN=Cc1ccc(-c2ccc(S(=O)(=O)Nc3ncccn3)cc2)o1` reads -14.8% (inactive). Consider `O=C(CSc1cccc2cccnc12)N/N=C/c1ccc(O)cc1`, for which the activity change, negative = cytotoxicity is 0.069% (inactive).

Consider `Cc1c(C#N)c(=O)c(-[n+]2ccccc2)c([S-])n1-c1ccc(Cl)cc1`, for which the activity change, negative = cytotoxicity is -8.57% (inactive). Still for that read-out and setting: as for `COc1cc2c(cc1OC)CN(C(=O)c1ccc(S(=O)(=O)N3CCCC3)cc1)CC2`, the figure is 1.87% (inactive); as for `N#CCCN(CCC#N)C(=O)C1c2ccccc2Oc2ccccc21`, -3.39% (inactive). Take `Cc1cc(Cl)ccc1N1C(=O)CC(NNC(=O)c2cccnc2)C1=O` (configuration not stated): the activity change, negative = cytotoxicity is 5.15% (inactive).

Turning to `Cn1cc(C(=O)c2ccc(Cl)cc2Cl)cc1C(=O)N/N=C(\N)COc1ccccc1`, the activity change, negative = cytotoxicity was -7.82% (inactive).

As to `COc1cc(OC)cc(-c2c(-c3ccsc3)c3cc(Br)ccc3n2C)c1`, the activity change, negative = cytotoxicity is -23.6% (inactive). Same read-out and setting: the result for `Cc1nn(CC(=O)c2ccc(Br)s2)c(C)c1[N+](=O)[O-]` reads -2.98% (inactive); that for `COc1cc(NC(=O)c2ccc(CNc3c(N4CCCC4)c(=O)c3=O)cc2)cc(OC)c1OC`, -7.17% (inactive). Turning to `CCOC(=O)C1=C(O)/C(=C/c2cc(C)n(-c3ccccc3)c2C)N=C1C`, the activity change, negative = cytotoxicity is 3.92% (inactive). Turning to `NC(=S)N/N=C/c1cn(CCC(=O)O)nc1-c1cccc(Br)c1`, the activity change, negative = cytotoxicity was -7.24% (inactive).

Turning to `Cc1cc[n+](-c2[nH]c(=O)sc2/C=N/N=C(\[O-])c2ccccc2)cc1C`, the activity change, negative = cytotoxicity is -3.68% (inactive).
